From patent US6909029B2, “Caenorhabditis elegans chemosensory bioassay for seven transmembrane receptor ligands” (SmithKline Beecham Corporation, priority 2000, dated 2005)

Tested on: C. elegans
Assay: Consumption of GFP-expressing bacteria by a culture of C. elegans (fluorescent plate reader)
Type: in vivo, Caenorhabditis elegans
Description: Two cultures of C. elegans and GFP-expressing bacteria were placed in microtiter wells. In one well, a lethal concentration of 10 nanomolar ivermectin was placed. The GFP fluorescence in the wells was determined by a fluorescent plate reader instrument at the initial time, and after two days of culture.
As the C. elegans grow and reproduce, the E. coli lawn is diminished until no bacteria remain. Therefore, the reduction of the bacterial lawn is a measurement of an actively feeding population of C. elegans. The rate of decrease of the lawn is proportional to the number of feeding animals present. […] The consumption of bacteria can be used as an indirect indicator of the distribution of animals. Substances can be spotted onto a substrate in an array, and a uniform lawn of bacteria placed on the substrate, overlaying the array. A test population of C. elegans can be introduced and incubated for a suitable time period to allow consumption of the lawn. If the animals are attracted to a substance, then they will move to that region of the substrate and the bacterial lawn will be diminished at that spot in comparison to the surrounding lawn. Conversely, if a substance repels the animals, then the bacterial lawn at that spot will not be consumed. Thus, bacterial consumption can be used to assay the growth and location of a population of nematodes. If a GFP-expressing bacterial strain is used (Chalfie, et al., supra) as was done in the experiment of Example 3, the variations in bacterial density can be easily detected, for example, by photographing fluorescence intensity.
In this experiment, GFP-expressing bacteria are placed in two microtiter wells along with a population of C. elegans. Because the bacteria express GFP, the amount of bacteria can easily be assayed using a fluorescent plate reader (Cytoflour, Perspective Biosystems). […] Initially, both wells show equivalent levels of bacteria. […] FIG. 3 depicts this experiment. Thus, bacterial consumption can be used to assay the growth and feeding of a population of nematodes. If a GFP-expressing bacterial strain is used (Chalfie, et al., supra) as was done in the experiment shown in FIG. 3, the variations in bacterial density can be easily visualized by photographing fluorescence intensity.

ivermectin
GFP fluorescence of bacteria in the well (Relative Intensity) (10 nanomolar ivermectin, after two days of culture): GFP fluorescence increases
Effect on C. elegans (in vivo): kills C. elegans
Amount of GFP-expressing bacteria in the well (ivermectin-containing well, after 4 days of culture): shows bacterial growth
Lethal concentration for C. elegans (microtiter well culture with GFP-expressing bacteria): 10 nM
